Measured values reported in patent US12605370B2, “Agents and compositions for the treatment of glioblastoma” (University of Cincinnati, priority 2020, dated 2026).

Tests used:
Type in all cases: cell-based
[1] = test system: shPTEN LN229 glioblastoma cells; test: Cell viability (CytoTox Glo) in PTEN-deficient shPTEN LN229 glioblastoma cells; details: serum-free, 72 hours
Protocol: FIG. 1 depicts a dose curve analysis showing the efficacy of the combination of LY2584702 with merestinib in shPTEN LN229 glioblastoma cells. Viability was measured using CytoTox Glo after culturing with inhibitors in serum-free conditions for 72 hours.
(§1) LN229 glioblastoma cells were transduced with either short hairpin RNA (shRNA) lentiviral particles coding for non-targeting shRNA (shNT) or shRNA that targets PTEN mRNA (shPTEN) for inhibition and degradation. These cells were then treated with either vehicle control, 10 μM LY2584702, 0.1-20 μM merestinib, or a combination of 10 μM LY2584702 and 0.1-20 μM merestinib. Cell viability was measured using CytoTox Glo after culturing with inhibitors in serum-free conditions for 72 hours.

shNT LN229 cells = test: Cell viability (CytoTox Glo) in non-targeting shNT LN229 glioblastoma cells; details: serum-free, 72 hours
Protocol: as §1

[2] = test system: PTEN-deficient U-vector U87MG glioblastoma cells; test: Cell viability (CytoTox Glo) in PTEN-deficient U-vector U87MG glioblastoma cells; details: serum-free, 72 hours
Protocol: (§2) FIG. 2 depicts a dose curve analysis showing the efficacy of the combination of LY2584702 with merestinib in PTEN-deficient U87MG glioblastoma cells. Viability was measured using CytoTox Glo after culturing with inhibitors in serum-free conditions for 72 hours. Doxycycline addition induced PTEN and protected cells from the cytotoxic effect of combination drug treatment.
(§3) U87MG glioblastoma cells were treated with doxycycline to induce PTEN expression (U-PTEN), while a separate set of U87 glioblastoma cells were treated with a similar amount of vector (U-vector). Thus, the U-vector cells were PTEN-deficient. These cells were then treated with either vehicle control, 10 μM LY2584702, 0.1-20 μM merestinib, or a combination of 10 μM LY2584702 and 0.1-20 μM merestinib. Cell viability was measured using CytoTox Glo after culturing with inhibitors in serum-free conditions for 72 hours.

[3] = test system: PTEN-expressing U-PTEN U87MG cells; test: Cell viability (CytoTox Glo) in PTEN-expressing U-PTEN U87MG glioblastoma cells; details: U-PTEN U87MG (doxycycline-induced PTEN), serum-free, 72 hours
Protocol: as §2, §3

[4] = test system: PTEN-deficient glioblastoma cells; test: Cell viability in PTEN-deficient glioblastoma cells (cabozantinib comparison)
Protocol: (§4) Glioblastoma cells were treated to produce two populations: PTEN-expressing and PTEN-deficient. These cells were then treated with either vehicle control, LY2584702, variable concentrations of cabozantinib, or a combination of LY2584702 and variable concentrations of cabozantinib. Cabozantinib is a small molecule inhibitor of RTKs, including TAM receptors. Cell viability was measured after culturing with the inhibitors.

[5] = test system: PTEN-expressing glioblastoma cells; test: Cell viability in PTEN-expressing glioblastoma cells (cabozantinib comparison)
Protocol: as §4

[6] = variable concentrations of cabozantinib alone

Measured: cytotoxicity (cell viability)

Cn1cc(-c2ccc(F)c(C(F)(F)F)c2)nc1C1CCN(c2ncnc3[nH]ncc23)CC1 [LY2584702]
not cytotoxic: [1]; 10 μM LY2584702 alone | shNT LN229 cells; 10 μM LY2584702 alone | [2]; 10 μM LY2584702 alone | [3]; 10 μM LY2584702 alone | [4]; LY2584702 alone | [5]; LY2584702 alone

COc1cc2nccc(Oc3ccc(NC(=O)C4(C(=O)Nc5ccc(F)cc5)CC4)cc3)c2cc1OC [cabozantinib]
not cytotoxic: [4]; [6] | [5]; [6]

Cc1ccc(C(=O)Nc2ccc(Oc3cc4cnn(C)c4cc3-c3cn[nH]c3)c(F)c2)c(=O)n1-c1ccc(F)cc1 [merestinib]
not cytotoxic: [1]; 0.1-20 μM merestinib alone | shNT LN229 cells; 0.1-20 μM merestinib alone | [2]; 0.1-20 μM merestinib alone | [3]; 0.1-20 μM merestinib alone
